Test results from patent US20100267561A1, “HERBICIDAL PYRIDAZINONE DERIVATIVES” (priority 2007, published 2010).

Columns and labels:
Assay in all cases: Test B pre-/postemergence plant response
Format in all cases: in vivo
[1] = system: catchweed bedstraw (Galium aparine); conditions: Preemergence
Summary of the method: (§1)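 Visual scoring from 0 (no effect) to 100 (complete control) against untreated controls was done 13 to 15 days after greenhouse treatment. Chemicals were formulated in a surfactant-containing non-phytotoxic solvent and applied to soil preemergence or to 1- to 4-leaf (2-18 cm) plants postemergence.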

[2] = system: morningglory (Ipomoea coccinea); conditions: for Morningglory plant response rating: 8 g ai/ha
Summary of the method: as §1

[3] = system: downy bromegrass (Bromus tectorum); conditions: for Bromegrass, Downy plant response rating: 8 g ai/ha
Summary of the method: as §1

[4] = system: surinam grass (Brachiaria decumbens); conditions: for Surinam Grass plant response rating: 8 g ai/ha
Summary of the method: as §1

[5] = system: lambsquarters (Chenopodium album)
Summary of the method: as §1

soybean (Glycine max) = conditions: for Soybean plant response rating: 8 g ai/ha
Summary of the method: as §1

[6] = system: blackgrass (Alopecurus myosuroides); conditions: for Blackgrass plant response rating: 8 g ai/ha
Summary of the method: as §1

[7] = system: Russian thistle (Salsola iberica); conditions: Preemergence
Summary of the method: as §1

[8] = system: yellow nutsedge (Cyperus esculentus); conditions: for Nutsedge, Yellow plant response rating: 8 g ai/ha
Summary of the method: as §1

[9] = system: cocklebur (Xanthium strumarium); conditions: for Cocklebur plant response rating: 8 g ai/ha
Summary of the method: as §1

corn (Zea mays) = conditions: for Corn plant response rating: 8 g ai/ha
Summary of the method: as §1

kochia (Kochia scoparia) = conditions: for Kochia plant response rating: 8 g ai/ha
Summary of the method: as §1

[10] = system: bermudagrass (Cynodon dactylon); conditions: for Bermudagrass plant response rating: 8 g ai/ha
Summary of the method: as §1

[11] = system: wheat (Triticum aestivum); conditions: for Wheat plant response rating: 8 g ai/ha
Summary of the method: as §1

[12] = 31 g ai/ha, 0 to 100 scale, 0 no effect, 100 complete control
[13] = Postemergence, 16 g ai/ha, scale 0 to 100
[14] = Postemergence, 31 g ai/ha, scale 0 to 100, 0 no effect, 100 complete control
[15] = Postemergence, 62 g ai/ha, scale 0 to 100
[16] = Preemergence, 16 g ai/ha, scale 0 to 100 (0 no effect, 100 complete control)
[17] = Preemergence, 31 g ai/ha, 0 to 100 scale, 0 no effect, 100 complete control
[18] = Preemergence, 62 g ai/ha, scale 0 to 100

## CCc1cc(-c2ccc(C(F)(F)F)cc2)nn1-c1c(OS(C)(=O)=O)cnn(C)c1=O [Compound 19]
[1]; [12]
  Plant response rating, Galium: 0
[1]; 62 g ai/ha, scale 0 to 100
  Plant response rating, Galium: 0
[1]; 8 g ai/ha, scale 0 to 100
  Galium plant response rating: 0
[2]; postemergence, 0-100 scale
  Morningglory plant response rating: 0
[2]; [13]
  Plant response rating, Morningglory: 0
[2]; [14]
  Plant response rating, Morningglory: 0
[2]; [15]
  Plant response rating, Morningglory: 0
[2]; [16]
  Plant response rating, Morningglory: 0
[2]; [17]
  Plant response rating, Morningglory: 0
[2]; [18]
  Plant response rating, Morningglory: 0
[2]; Preemergence, scale 0 to 100
  Morningglory plant response rating: 0
[3]; postemergence, 0-100 scale
  Bromegrass, Downy plant response rating: 10
[3]; [13]
  Plant response rating, Bromegrass, Downy: 75
[3]; [14]
  Plant response rating, Bromegrass, Downy: 75
[3]; [15]
  Plant response rating, Bromegrass, Downy: 90
[3]; [16]
  Plant response rating, Bromegrass, Downy: 0
[3]; [17]
  Plant response rating, Bromegrass, Downy: 30
[3]; [18]
  Plant response rating, Bromegrass, Downy: 60
[3]; Preemergence, scale 0 to 100
  Bromegrass, Downy plant response rating: 0
[4]; postemergence, 0-100 scale
  Surinam Grass plant response rating: 90
[4]; [13]
  Plant response rating, Surinam Grass: 100
[4]; [14]
  Plant response rating, Surinam Grass: 100
[4]; [15]
  Plant response rating, Surinam Grass: 100
[4]; [16]
  Plant response rating, Surinam Grass: 80
[4]; [17]
  Plant response rating, Surinam Grass: 98
[4]; [18]
  Plant response rating, Surinam Grass: 100
[4]; Preemergence, scale 0 to 100
  Surinam Grass plant response rating: 80
[5]; 8 g ai/ha, postemergence, 0-100 scale
  Lambsquarters plant response rating: 0
[5]; [13]
  Plant response rating, Lambsquarters: 0
[5]; [14]
  Plant response rating, Lambsquarters: 0
[5]; [15]
  Plant response rating, Lambsquarters: 0
[5]; [16]
  Plant response rating, Lambsquarters: 0
[5]; [17]
  Plant response rating, Lambsquarters: 0
[5]; [18]
  Plant response rating, Lambsquarters: 40
Soybean (Glycine max); postemergence, 0-100 scale
  Soybean plant response rating: 0
Soybean (Glycine max); [13]
  Plant response rating, Soybean: 0
Soybean (Glycine max); [14]
  Plant response rating, Soybean: 0
Soybean (Glycine max); [15]
  Plant response rating, Soybean: 0
Soybean (Glycine max); [18]
  Plant response rating, Soybean: 0
Soybean (Glycine max); Preemergence, scale 0 to 100
  Soybean plant response rating: 0
[6]; postemergence, 0-100 scale
  Blackgrass plant response rating: 80
[6]; [13]
  Plant response rating, Blackgrass: 85
[6]; [14]
  Plant response rating, Blackgrass: 90
[6]; [15]
  Plant response rating, Blackgrass: 95
[6]; [16]
  Plant response rating, Blackgrass: 100
[6]; [17]
  Plant response rating, Blackgrass: 100
[6]; [18]
  Plant response rating, Blackgrass: 100
[6]; Preemergence, scale 0 to 100
  Blackgrass plant response rating: 95
[7]; 16 g ai/ha, scale 0 to 100 (0 no effect, 100 complete control)
  Plant response rating, Russian Thistle: 0
[7]; [12]
  Plant response rating, Russian Thistle: 0
[7]; 8 g ai/ha, scale 0 to 100
  Russian Thistle plant response rating: 0
[8]; postemergence, 0-100 scale
  Nutsedge, Yellow plant response rating: 0
[8]; [13]
  Plant response rating, Nutsedge, Yellow: 0
[8]; [14]
  Plant response rating, Nutsedge, Yellow: 0
[8]; [15]
  Plant response rating, Nutsedge, Yellow: 30
[8]; [16]
  Plant response rating, Nutsedge, Yellow: 0
[8]; [17]
  Plant response rating, Nutsedge, Yellow: 0
[8]; [18]
  Plant response rating, Nutsedge, Yellow: 0
[8]; Preemergence, scale 0 to 100
  Nutsedge, Yellow plant response rating: 0
[9]; postemergence, 0-100 scale
  Cocklebur plant response rating: 0
[9]; [13]
  Plant response rating, Cocklebur: 0
[9]; [14]
  Plant response rating, Cocklebur: 0
[9]; [15]
  Plant response rating, Cocklebur: 0
[9]; [16]
  Plant response rating, Cocklebur: 0
[9]; [17]
  Plant response rating, Cocklebur: 0
[9]; [18]
  Plant response rating, Cocklebur: 0
[9]; Preemergence, scale 0 to 100
  Cocklebur plant response rating: 0
Corn (Zea mays); postemergence, 0-100 scale
  Corn plant response rating: 0
Corn (Zea mays); [13]
  Plant response rating, Corn: 0
Corn (Zea mays); [14]
  Plant response rating, Corn: 0
Corn (Zea mays); [15]
  Plant response rating, Corn: 95
Corn (Zea mays); [16]
  Plant response rating, Corn: 85
Corn (Zea mays); [17]
  Plant response rating, Corn: 95
Corn (Zea mays); [18]
  Plant response rating, Corn: 98
Corn (Zea mays); Preemergence, scale 0 to 100
  Corn plant response rating: 70
Kochia (Kochia scoparia); postemergence, 0-100 scale
  Kochia plant response rating: 0
Kochia (Kochia scoparia); [13]
  Plant response rating, Kochia: 0
Kochia (Kochia scoparia); [14]
  Plant response rating, Kochia: 0
Kochia (Kochia scoparia); [15]
  Plant response rating, Kochia: 0
Kochia (Kochia scoparia); [16]
  Plant response rating, Kochia: 0
Kochia (Kochia scoparia); [18]
  Plant response rating, Kochia: 0
Kochia (Kochia scoparia); Preemergence, scale 0 to 100
  Kochia plant response rating: 0
[10]; postemergence, 0-100 scale
  Bermudagrass plant response rating: 80
[10]; [13]
  Plant response rating, Bermudagrass: 100
[10]; [14]
  Plant response rating, Bermudagrass: 100
[10]; [15]
  Plant response rating, Bermudagrass: 100
[10]; Preemergence, scale 0 to 100 (0 no effect, 100 complete control)
  Bermudagrass plant response rating: 0
[10]; [16]
  Plant response rating, Bermudagrass: 90
[10]; [17]
  Plant response rating, Bermudagrass: 98
[10]; [18]
  Plant response rating, Bermudagrass: 100
[11]; postemergence, 0-100 scale
  Wheat plant response rating: 0
[11]; [13]
  Plant response rating, Wheat: 60
[11]; [14]
  Plant response rating, Wheat: 85
[11]; [15]
  Plant response rating, Wheat: 98
[11]; [16]
  Plant response rating, Wheat: 10
[11]; [17]
  Plant response rating, Wheat: 90
[11]; [18]
  Plant response rating, Wheat: 95
[11]; Preemergence, scale 0 to 100
  Wheat plant response rating: 0
